Assay results published in article PMC4627284, “High-throughput simultaneous screen and counterscreen identifies homoharringtonine as synthetic lethal with von Hippel-Lindau loss in renal cell carcinoma” (Oncotarget, 2015).
Read-outs that look alike come from different tables or passages of the source.

Assay: Pharmacokinetic analysis after a single dose by oral gavage
Type: in vivo, NOD/SCID mice
Settings: for AUC(0-inf) / Cmax / Tmax / half-life / Vd/F: female, NOD/SCID, mouse, plasma; for half-life: read-out: Terminal t½ (converted); for Vd/F: read-out: Vz/F
Experimental: We evaluated PK parameters after administration of a single dose of HHT by oral gavage to mice of 0.4 mg/kg, 0.7 mg/kg and 2 mg/kg (Table 1). […] Treatment with 0.4 mg/kg HTT by gavage most closely approximated human exposures. […] Given our in vitro studies, we sought to sustain 50 nM drug levels and mice were dosed with 0.7 mg/kg HHT given by gavage twice daily.
Female NOD/SCID mice (6-7 weeks) were administered homoharringtonine (HHT) by oral gavage. DMSO was used to wet the compound which was subsequently diluted in normal saline (pH 7.2) prior to administration (final DMSO < 5%). Animals were sacrificed in duplicate by inhalation overdose of CO2 at varying times post-dose and bled by cardiac puncture using acidified citrate dextrose (ACD) as the anticoagulant. Plasma was isolated after centrifugation at 9,600 x g for 10 minutes at 4°C. Protein was precipitated from 100 μl of plasma with 100 μl of acetonitrile containing 100 ng/ml of n-benzylbenzamide, which was used as an internal standard (IS), and 0.2% formic acid. After extensive vortexing, samples were incubated for 10 minutes at RT and spun twice at 16,100 x g for 5 minutes. The supernatant was evaluated by LC-MS/MS using a Shimadzu (Columbia, MD) Prominence LC coupled to an AB Sciex (Framingham, MA) 3200 Qtrap mass spectrometer. Extraction conditions were optimized prior to PK analysis for efficient and reproducible recovery over a three log range of concentrations. Analytical standards and quality control samples were prepared in a similar fashion by spiking commercial CD-1 mouse plasma (Bioreclamation, Westbury, NY) with known quantities of HHT. Chromatography conditions were as follows: an Agilent (Santa Clara, CA) C18 XDB, 5 micron packing, 50 × 4.6 mm size column was used for reverse phase chromatography. Buffer A consisted of dH2O + 0.1% formic acid and Buffer B consisted of methanol + 0.1% formic acid. Gradient conditions utilized were: 0.01-1.0 min 3% B, 1.0-1.5 min gradient to 100% B,1.5-3.0 min 100% B, 3.0-3.1 min gradient to 3% B, 3.1-4.1 min 3% B. HHT was detected as the 546.3 to 298.3 transition, and the IS (n-benzylbenzamide) as the 212.1 to 91.1 transition. Data were analyzed using Analyst software (AB Sciex.) A value 3x above the signal obtained in the blank plasma was designated as the limit of detection (LOD). The limit of quantitation (LOQ) was defined as the lowest concentration on the standard curve at which back calculation yielded a concentration within 20% of the theoretical value and above the LOD signal. The LOQ for HHT was 0.5 ng/ml. Pharmacokinetic properties were evaluated using the noncompartmental analysis tool in WinNonlin (Certara, Corp., St. Louis, MO). Sparse sampling was used for data analysis. Terminal half-life was calculated as the ln(2)/λz where λz is a first order rate constant associated with the terminal (log-linear) portion of the curve. It is estimated by linear regression of time vs. log concentration by the software for three or more of the final nonzero data points. Tmax (time to maximal drug concentration) and Cmax (maximal drug concentration) were determined by visual inspection. Area under the concentration time curve (AUCinf) from time 0 to infinity was determined by linear trapezoidal analysis. Apparent Volume of Distribution (Vz/F) is based on the terminal phase and is calculated as Dose/λz*AUCinf while Apparent Clearance (CL/F) is calculated as Dose/AUCinf. Calculation of Absolute Vz and CL requires knowledge of oral bioavailability (F) which is calculated as AUCoral/AUCiv X Dose iv/Doseoral but was not determined here because an IV PK was not performed.

COC(=O)C[C@](O)(CCCC(C)(C)O)C(=O)O[C@@H]1C(OC)=C[C@]23CCCN2CCc2cc4c(cc2[C@H]13)OCO4 [HHT, homoharringtonine]
Cl/F (0.4 mg/kg oral gavage, mice): 32.7 mL/h | Cl/F (0.7 mg/kg oral gavage, mice): 30.5 mL/h | time HHT concentrations above 50 nM were sustained (0.7 mg/kg oral gavage, mice, 50 nM equivalent to 27.3 ng/mL): ~ 6 hours | Cl/F (2 mg/kg oral gavage, mice): 46.6 mL/h | AUC(0-inf) (0.4 mg/kg oral gavage, mice): 251 ng·h/mL | Cmax (0.4 mg/kg oral gavage, mice): 28.8 ng/mL | Tmax (0.4 mg/kg oral gavage, mice): 0.17 h | half-life (0.4 mg/kg oral gavage, mice): 1.86 h | Vd/F (0.4 mg/kg oral gavage, mice): 0.0877 L | AUC(0-inf) (0.7 mg/kg oral gavage, mice): 440 ng·h/mL | Cmax (0.7 mg/kg oral gavage, mice): 57.8 ng/mL | Tmax (0.7 mg/kg oral gavage, mice): 0.17 h | half-life (0.7 mg/kg oral gavage, mice): 2.8 h | Vd/F (0.7 mg/kg oral gavage, mice): 0.123 L | AUC(0-inf) (2 mg/kg oral gavage, mice): 905 ng·h/mL | Cmax (2 mg/kg oral gavage, mice): 97.2 ng/mL | Tmax (2 mg/kg oral gavage, mice): 1.5 h | half-life (2 mg/kg oral gavage, mice): 6.74 h | Vd/F (2 mg/kg oral gavage, mice): 0.453 L | time at which Cmax was reached (two lower doses (0.4 and 0.7 mg/kg), first time point sampled): 10 min
